Data published in PMC3236199, “Development of Derivatives of 3, 3′-Diindolylmethane as Potent Leishmania donovani Bi-Subunit Topoisomerase IB Poisons” (PLoS ONE, 2011).

Legend:
[1] = tested on: DIM resistant L. donovani promastigotes (DR50); assay: Cell viability assay, DIM resistant promastigotes; type: cell-based; details: Leishmania donovani, 12 h, read-out: growth inhibited
Description: L. donovani strain AG83 and DIM resistant parasite DR50 promastigotes were grown at 22°C in M199 liquid media supplemented with 10% FBS as described. Axenic amastigotes were cultured in modified M199 medium (pH 5.3) supplemented with 10 mM sodium succinate, 40 mM HEPES and 25% FCS and maintained at 37°C with 5% CO2.The effect of drugs on the viability of Leishmania parasites was determined by direct microscopic counting using light microscope (40× objective) in a haemocytometer. The cells at the exponential phase were collected and transferred into 24-well plate (3.5×10^6 cells per well). The cells were then incubated for 12 h in the presence of various concentrations of DIM, DPDIM, DMDIM and DMODIM (1, 5, 10, 20 and 50 µM). For other experiments, 10^4 cells were taken and grown in presence of the respective derivatives for a period of 30 days. For each 5 day interval, a small amount of aliquots were taken out. After incubation the cells were centrifuged and cell pellet was washed with PBS (1×) twice and finally suspended in 1 ml PBS (1×). Fifty µl of aliquot was taken, mixed with 0.4% trypan blue solution and incubated for 3 min at 22°C. One drop of the mixture was transferred to haemocytometer and the clear (live) and blue (dead) cells were counted. The total number of viable cells in aliquot was calculated by multiplying the total number of viable cells by 2 (the dilution factor for trypan blue). To obtain the total number of cells in the aliquot, total number of viable and nonviable cells were added up and multiplied by 2. Percentages of viable cells were calculated using the formula: [drawing 1]
The effects of different derivatives of DIM on cell proliferation were tested by incubating wild type and DIM resistant L. donovani promastigotes (3.5×10^6 cells/ml) with the drugs. […] The number of live promastigotes was measured by differential staining of live and dead cells using light microscope under 40× objective (Fig. 2). […]
Figure 2 Effect of DIM-derivatives on Leishmania parasites. Growth of L. donovani AG83 promastigotes (A) and DIM resistant promastigotes (B) were monitored in presence of increasing concentrations (1, 5, 10, 20 and 50 µM) of DIM, DPDIM, DMDIM and DMODIM for 12 h. […] Change in IC50 values after a prolong exposure to DIM derivatives (C) has been assessed as described in Materials and Methods. After every 5 day a small aliquot was taken out and number of viable promastigotes was counted for each concentration. IC50 values have been determined from them using Graph Pad Prsim ver 5.0 software and a graphical plot was generated over time. Growth of the parasites treated with the compounds was expressed as percentage of the viable promastigotes compared with that of control. […]

[2] = tested on: DIM resistant parasites (LdDR50); assay: DNA fragmentation assay (cell death detection ELISA), DIM resistant; type: cell-based, Leishmania donovani; details: 20 µM
Description: Leishmanial cells were cultured in 24-well plates and treated with 20 µM of DIM, DPDIM, DMDIM and DMODIM for different times. Samples were collected at requisite time points and subjected to measurement of DNA fragmentations. Cytoplasmic histone-associated DNA fragments (mononucleosome and oligonucleosomes) formed during apoptosis were detected using a cell death detection ELISA kit (Roche Biochemicals) by spectrophotometric measurement of microtiter plates in a Thermo MULTISKAN EX plate reader at 405 nm. The relative percentages (with respect to samples treated with micrococcal nuclease and normalized to percentage values) were plotted as units of time or drug concentrations as described previously.
The internucleosomal DNA digestion by an endogenous nuclease (genomic DNA fragmentation) is considered as a hallmark of apoptotic cell death. […] To investigate whether these derivatives also do the same, we performed the DNA fragmentation assay with wild type L. donovani AG83 promastigotes and DIM resistant parasites (Fig. 4) by ELISA as described in Materials and Methods. […] DNA fragmentation increased to 85%, 89%, 81% and 71% at 8 h of treatment in wild type parasites. The DIM resistant parasites (LdDR50) have much less effect in DNA fragmentation (13% at 6 h and 17% at 8 h) when treated with 20 µM DIM. On the other hand the extents of DNA fragmentations were 63%, 51% and 40% at 6 h treatment with DPDIM, DMDIM and DMODIM respectively. The extent of fragmentation increased to 82%, 74% and 65% after treatment for 8 h with the drugs as mentioned above.
Figure 4 DIM derivatives-induced fragmentation of genomic DNA in wild type and DIM resistant parasites. Relative percentage of DNA fragmentation measured by cell death detection ELISA kit in L. donovani promastigotes treated with DIM, DPDIM, DMDIM and DMODIM. The experiments were performed three times and representative data from one of these experiments as means ± SD.

| Compound | inhibition at 20 µM [1] | fragmentation of DNA ([2]; 6 h) | fragmentation of DNA ([2]; 8 h) |
| --- | --- | --- | --- |
| c1ccc2c(Cc3c[nH]c4ccccc34)c[nH]c2c1 [DIM, 3, 3′-diindolyl methane, reference compound] | 20% | 13% | 17% |
| Cc1[nH]c2ccccc2c1Cc1c(C)[nH]c2ccccc12 [DMDIM, 2,2′-dimethyl 3,3′-diindolyl methane] | 85% | 51% | 74% |
| COc1ccc2[nH]cc(Cc3c[nH]c4ccc(OC)cc34)c2c1 [DMODIM, 5,5′-dimethoxy 3,3′-diindolyl methane] | 65% | 40% | 65% |
| c1ccc(-c2[nH]c3ccccc3c2Cc2c(-c3ccccc3)[nH]c3ccccc23)cc1 [DPDIM, 2,2′-diphenyl 3,3′-diindolyl methane] | 90% | 63% | 82% |
